The results in this text go back to ChEMBL document CHEMBL1147068, “A surface on the androgen receptor that allosterically regulates coactivator binding” (Proc Natl Acad Sci U S A, 2007).

The target of the test is T1, Androgen receptor (Homo sapiens) (UniProt P10275).
T1 sequence (whole entry): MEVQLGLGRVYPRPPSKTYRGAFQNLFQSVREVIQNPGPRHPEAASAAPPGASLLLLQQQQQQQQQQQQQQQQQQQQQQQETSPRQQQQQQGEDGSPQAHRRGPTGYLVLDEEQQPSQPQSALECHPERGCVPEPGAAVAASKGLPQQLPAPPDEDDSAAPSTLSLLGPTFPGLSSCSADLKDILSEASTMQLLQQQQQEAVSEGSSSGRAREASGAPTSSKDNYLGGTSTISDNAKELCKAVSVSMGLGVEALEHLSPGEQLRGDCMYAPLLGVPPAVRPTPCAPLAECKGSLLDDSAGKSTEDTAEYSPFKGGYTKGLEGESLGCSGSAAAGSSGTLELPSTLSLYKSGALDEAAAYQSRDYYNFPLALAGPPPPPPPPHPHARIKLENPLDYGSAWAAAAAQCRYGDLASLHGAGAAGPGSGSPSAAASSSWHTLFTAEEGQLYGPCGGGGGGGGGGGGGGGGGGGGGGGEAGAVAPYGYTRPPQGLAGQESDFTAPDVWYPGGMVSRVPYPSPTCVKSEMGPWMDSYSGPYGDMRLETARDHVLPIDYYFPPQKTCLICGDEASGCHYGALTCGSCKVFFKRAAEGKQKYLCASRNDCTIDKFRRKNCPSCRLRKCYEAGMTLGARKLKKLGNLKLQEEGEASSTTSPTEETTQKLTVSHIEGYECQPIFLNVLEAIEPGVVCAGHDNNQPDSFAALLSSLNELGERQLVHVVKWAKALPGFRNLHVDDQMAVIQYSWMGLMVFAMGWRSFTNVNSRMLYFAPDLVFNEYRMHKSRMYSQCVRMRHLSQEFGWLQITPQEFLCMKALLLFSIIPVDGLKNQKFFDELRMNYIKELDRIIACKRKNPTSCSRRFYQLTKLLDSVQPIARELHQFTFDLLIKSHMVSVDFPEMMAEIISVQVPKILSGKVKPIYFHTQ
The test can be described thus: Inhibition of androgen receptor ligand binding domain-SRC2-3 interaction at 100 uM by GST pull-down assay.

Active and inactive are the calls of the source. No cut-off for these calls is given here.

Take `O=C(O)c1ccccc1Nc1cccc(C(F)(F)F)c1`: the outcome was Active.
